Measurements: patent US11440909B2, “10H-phenothiazine ferroptosis inhibitor as well as the preparative method and the use thereof” (CHENGDU HENGHAO INVESTMENT CO. LIMITED, priority 2018, dated 2022)

tested on: fibrosarcoma cell line HT1080; experiment: Ferroptosis screening model (MTT method), Erastin-induced ferroptosis; type: cell-based, human; conditions: Homo sapiens, HT-1080, 72 h, HT1080, ferroptosis inducer Erastin, 72 h, average of three tests, read-out: EC50
Description: The screening model for ferroptosis mainly used MTT method. First, the fibrosarcoma cell line HT1080 was cultured in a dish, and the cells in the logarithmic growth phase were inoculated into a 96-well plate in a certain number (3000-10000 cells/well), 100 μL per well, and then the plate was put in an 5% CO2 incubator at 37° C., to allow the cells to adhere. After 24 h, 100 μL compound solution at a certain concentration prepared in the designated medium and ferroptosis inducer Erastin (with a final concentration of […]) were added, setting 3 replicate wells for each compound to ensure the accuracy of the results, and a negative control group, a positive control group (Fer-15 μM), a blank control group and a solvent control group were included. After addition of drugs, the plate was placed in an incubator and cultivated for 72 h. On the day of MTT experiment, MTT test solution (5 mg/mL MTT solution dissolved in physiological saline, and stored in the dark at 4° C.) was pre-prepared and 20 μL MTT solution was added to each well, then the plate was put in an incubator and continued to incubate for 2-4 h. After that, 50 μL of 20% SDS solution (dissolved in MiliiQ water, added with 1% concentrated hydrochloric acid) was added to each well and kept in an incubator overnight. On the next day, the absorbance at 570 nm was measured with a microplate reader, to calculate the inhibition rate of drugs on ferroptosis. Generally, the absorbance value of the control group should be in the range of 0.8-1.2 as a normal value.
GraphPadPrism5 software was used to fit the change curve of inhibition rate and calculate the EC50.

SMILES	EC50 [µM]
COc1cc(C(C)c2ccc3c(c2)Nc2ccccc2S3)ccc1Cl (centres unmarked) [Compound A50, 2-(1-(4-chloro-3-methoxylphenyl)ethyl)-10H-phenothiazine]	0.025
COc1cc(C(C)c2ccc3c(c2)Nc2ccccc2S3)ccc1F (centres unmarked) [Compound A51, 2-(1-(4-fluoro-3-methoxylphenyl)ethyl)-10H-phenothiazine]	0.022
Cc1ccc(C(C)c2ccc3c(c2)Nc2ccccc2S3)cc1[N+](=O)[O-] (centres unmarked) [Compound A52, 2-(1-(4-methyl-3-nitrophenyl)ethyl)-10H-phenothiazine]	0.013
COC(=O)c1ccc(C(C)c2ccc3c(c2)Nc2ccccc2S3)cc1Cl (centres unmarked) [Compound A53, 4-(1-(10H-phenothiazin-2-yl)ethyl)-2-chlorobenzoic acid methyl ester]	0.02
Cc1cc(C(C)c2ccc3c(c2)Nc2ccccc2S3)ccc1OCc1ccccc1 (centres unmarked) [Compound A54, 2-(1-(4-(benzyloxyl)-3-methylphenyl)ethyl)-10H-phenothiazine]	0.068
CC(c1ccc2c(c1)Nc1ccccc1S2)c1ccc(F)c(OCc2ccccc2)c1 (centres unmarked) [Compound A55, 2-(1-(3-(benzyloxyl)-4-fluorophenyl)ethyl)-10H-phenothiazine]	0.059
CC(c1cc(F)cc(OCc2ccccc2)c1)c1ccc2c(c1)Nc1ccccc1S2 (centres unmarked) [Compound A64, 2-(1-(3-(benzyloxyl)-5-fluorophenyl)ethyl)-10H-phenothiazine]	0.064
CC(c1ccc2c(c1)Nc1ccccc1S2)c1ccc2c(c1)OCCO2 (centres unmarked) [Compound A65, 2-(1-(2,3-dihydrobenzo[b][1,4]dioxa-6-yl)ethyl)-10H-phenothiazine]	0.008
CC(c1ccc2c(c1)Nc1ccccc1S2)c1cccc2c1COCO2 (centres unmarked) [Compound A66, 2-(1-(benzo[d][1,3]dioxin-5-yl)ethyl)-10H-phenothiazine]	0.005
CC(c1ccc2c(c1)Nc1ccccc1S2)c1cc2ccccc2o1 (centres unmarked) [Compound A67, 2-(1-(benzofuran-2-yl)ethyl)-10H-phenothiazine]	0.016
CC(c1ccc2c(c1)Nc1ccccc1S2)c1ccc2ccccc2c1 (centres unmarked) [Compound A68, 2-(1-(naphthalen-2-yl)ethyl)-10H-phenothiazine]	0.005
COc1ccc2cc(C(C)c3ccc4c(c3)Nc3ccccc3S4)ccc2c1 (centres unmarked) [Compound A69, 2-(1-(6-methoxylnaphthalen-2-yl)ethyl)-10H-phenothiazine]	0.003

Second part, the molecule after the results:

EC50 [µM]	SMILES
0.019	CC(c1cc(F)cc(F)c1)c1ccc2c(c1)Nc1ccccc1S2 (centres unmarked) [Compound A56, 2-(1-(3,5-difluorophenyl)ethyl)-10H-phenothiazine]
0.018	CC(c1cc(Cl)cc(Cl)c1)c1ccc2c(c1)Nc1ccccc1S2 (centres unmarked) [Compound A57, 2-(1-(3,5-dichlorophenyl)ethyl)-10H-phenothiazine]
0.019	CC(c1cc(C(F)(F)F)cc(C(F)(F)F)c1)c1ccc2c(c1)Nc1ccccc1S2 (centres unmarked) [Compound A58, 2-(1-(3,5-bis(trifluoromethyl)phenyl)ethyl)-10H-phenothiazine]
0.02	Cc1cc(C)cc(C(C)c2ccc3c(c2)Nc2ccccc2S3)c1 (centres unmarked) [Compound A59, 2-(1-(3,5-dimethylphenyl)ethyl)-10H-phenothiazine]
0.012	COc1cc(OC)cc(C(C)c2ccc3c(c2)Nc2ccccc2S3)c1 (centres unmarked) [Compound A60, 2-(1-(3,5-dimethoxylphenyl)ethyl)-10H-phenothiazine]
0.034	CCOc1cc(F)cc(C(C)c2ccc3c(c2)Nc2ccccc2S3)c1 (centres unmarked) [Compound A61, 2-(1-(3-ethoxyl-5-fluorophenyl)ethyl)-10H-phenothiazine]
0.024	Cc1cc(Cl)cc(C(C)c2ccc3c(c2)Nc2ccccc2S3)c1 (centres unmarked) [Compound A62, 2-(1-(3-chloro-5-methylphenyl)ethyl)-10H-phenothiazine]
0.031	COC(=O)c1cc(F)cc(C(C)c2ccc3c(c2)Nc2ccccc2S3)c1 (centres unmarked) [Compound A63, 3-(1-(10H-phenothiazin-2-yl)ethyl)-5-fluorobenzoic acid methyl ester]
